US20030144237A1, “Use of inhibition of a gas6 function or of a gas6 receptor for preventing and treating a cardiovascular disease” (priority 2000, published 2003)

Legend:
[1] = system: Gas6+/+ platelets; assay: Platelet ATP release (dense granule secretion), Lumi-aggregometer, Gas6+/+ platelets; type: cell-based, mice; parameters: unit not given here; conditions: mean±SEM of three experiments
Experimental: (§1) Platelet aggregation and, ATP secretion were measured in an optical Chronolog Lumi-aggregometer (Coulter Electronics Ltd), using 280 μl PRP, adjusted to a concentration of 250,000 platelets/μl with PPP as a diluent. Platelet aggregation was measured as described in example 4. Platelet ATP release was monitored by adding firely luciferase and luciferin to all samples and comparing luminescence created by platelet ATP release to that generated by addition of an ATP standard (Chrono-Lume, Kordia). Aggregation and ATP release in response to collagen (equine collagen from Hormon Chemie), ADP, or the thromboxane A2 mimetic U46619 were studied. Platelet aggregation and ATP secretion in response to thrombin were performed with washed platelets in an optical Chronolog Lumi-aggregometer as described above.

[2] = system: Gas6−/− platelets; assay: Platelet ATP release (dense granule secretion), Lumi-aggregometer, Gas6−/− platelets; type: cell-based, mice; parameters: unit not given here; conditions: mean±SEM of three experiments
Experimental: as §1

[3] = system: Platelets from Gas6+/+ mice; assay: Platelet aggregation (turbidimetric, Chronolog aggregometer), Gas6+/+ platelets; type: cell-based; conditions: for platelet aggregation in response to PMA, A23187 or thrombin: FIG. 2, thrombin with washed platelets; for platelet aggregation in response to agonist (dose dependence): platelet-rich plasma, FIG. 1a-j
Experimental: (§2) Blood was centrifuged at 100 g for 10 minutes, allowing separation of platelet-rich plasma (PRP). Platelet-poor plasma (PPP) was obtained by centrifugation of the remaining blood at 2,000 g for 10 minutes. PRP and PPP were pooled from four Gas6^−/− or Gas6^+/+ mice. Platelet aggregation was measured turbidimetrically in an optical Chronolog aggregometer (model 490, Coulter Electronics Ltd), using 280 μl PRP, adjusted to a concentration of 250,000 platelets/μl with PPP as a diluent. PPP also served as 100% reference for aggregation. Aggregation in response to collagen (equine collagen from Hormon Chemie), ADP or the thromboxane A2 mimetic U46619 was studied.
(§3) Aggregation in response to thrombin was performed with washed platelets. […] Apyrase was added to PRP at a final concentration of 1 u/ml. Platelets were then washed by adding 2 volumes ACD and pelleted by centrifugation at 2,000 g for 10 minutes. Platelet pellet was resuspended in Tyrode's buffer containing 1% BSA and final platelet suspension was adjusted to 200,000 platelets/μl and kept at 37° C. Platelet aggregation was measured with an optical Chronolog aggregometer as described above.

[4] = system: platelets from Gas6−/− mice; assay: Platelet aggregation (turbidimetric, Chronolog aggregometer), Gas6−/− platelets; type: cell-based; conditions: for platelet aggregation in response to PMA, A23187 or thrombin: FIG. 2, thrombin with washed platelets; for irreversible platelet aggregation at higher agonist concentrations: ADP 50 μM, collagen 5-15 μg/ml, U46619 100 μM; for irreversible platelet aggregation at low agonist concentrations: ADP <10 μM, collagen 2 μg/ml, U46619 10 μM, only shape change
Experimental: as §2, §3

[5] = agonist 8 μM, platelet-rich plasma
[6] = agonist 20 μM, platelet-rich plasma
[7] = agonist 50 μM, platelet-rich plasma
[8] = agonist 100 μM, platelet-rich plasma
[9] = agonist 10 μg/ml, platelet-rich plasma
[10] = agonist 1 U/ml, washed platelets

| Compound | platelet aggregation in response to PMA, A23187 or thrombin [3] | platelet aggregation in response to PMA, A23187 or thrombin [4] | platelet aggregation in response to agonist (dose dependence) [3] | irreversible platelet aggregation at higher agonist concentrations [4] | irreversible platelet aggregation at low agonist concentrations [4] | ATP release [1, 8] | ATP release [2, 8] | also measured |
| --- | --- | --- | --- | --- | --- | --- | --- | --- |
| CNc1ccc2oc(C[C@H]3O[C@@]4(CC[C@H]3C)O[C@H]([C@H](C)C(=O)c3ccc[nH]3)[C@H](C)C[C@H]4C)nc2c1C(=O)O [A23187] | aggregated normally | aggregated normally |  |  |  |  |  | ATP release [1, 5]: 9.2 ± 3.1; ATP release [2, 5]: 7.3 ± 3.0 |
| Nc1ncnc2c1ncn2[C@@H]1O[C@H](COP(=O)(O)OP(=O)(O)O)[C@@H](O)[C@H]1O [ADP, adenosine 5′-diphosphate] |  |  | dose-dependently aggregated | induced irreversible aggregation | failed to irreversibly aggregate |  |  | ATP release [1, 6]: 0.8 ± 0.1; ATP release [1, 7]: 2.6 ± 0.8; ATP release [2, 6]: 0.2 ± 0.1; ATP release [2, 7]: 1.3 ± 0.3 |
| CCCCCCCCCCCCCC(=O)O[C@@H]1[C@@H](C)[C@@]2(O)[C@@H](C=C(CO)C[C@]3(O)C(=O)C(C)=C[C@@H]23)[C@@H]2C(C)(C)[C@]12OC(C)=O [PMA, phorbol-12-myristyl-13-acetate] | aggregated normally | aggregated normally |  |  |  | 2.3 ± 0.4 | 1.9 ± 0.6 |  |
| CCCCC[C@H](O)/C=C/[C@@H]1[C@@H](C/C=C\CCCC(=O)O)[C@H]2CO[C@@H]1C2 [U46619] |  |  | dose-dependently aggregated | induced irreversible aggregation | failed to irreversibly aggregate | 8.2 ± 2.0 | 7.6 ± 2.3 | ATP release ([1]; agonist 10 μM, platelet-rich plasma): 6.5 ± 1.5 |
| Collagen |  |  | dose-dependently aggregated | induced irreversible aggregation | failed to irreversibly aggregate |  |  | ATP release ([1]; agonist 1 μg/ml, platelet-rich plasma): 1.8 ± 0.3; ATP release [1, 9]: 10 ± 1.0; ATP release [2, 9]: 11 ± 0.8 |
| Thrombin | stimulated platelet aggregation comparably in both genotypes | stimulated platelet aggregation comparably in both genotypes |  |  |  |  |  | ATP release [1, 10]: 17 ± 1.6; ATP release [2, 10]: 11 ± 1.2 |
